Tests used:
[1] = Cytotoxicity against mouse RAW264.7 cells assessed as cell survival rate at 200 uM after 24 hrs in presence of LPS by MTT assay; assay type: toxicity; details: read-out: Survival
[2] = Cytotoxicity against mouse RAW264.7 cells assessed as cell survival rate at 200 uM after 24 hrs in absence of LPS by MTT assay; assay type: toxicity; details: read-out: Survival
[3] = Antiinflammatory activity in mouse RAW264.7 cells assessed as inhibition of LPS-induced nitric oxide production after 24 hrs in presence of LPS by Griess assay; assay type: functional, cell-based; details: RAW264.7, 24 h

Row | SMILES | viability at 24 h, 200 µM [1] | viability at 24 h, 200 µM [2] | IC50 [3]
1 | COc1ccc2c(c1)O[C@H](c1ccccc1)[C@H](O)C2 | 104% | 119% | 17.3 µM
2 | C[C@@H]1C[C@H]2[C@@H]3CCC4=CC(=O)C=C[C@]4(C)[C@@]3(F)[C@@H](O)C[C@]2(C)[C@@]1(O)C(=O)CO [DEXAMETHASONE] | 100% | 91% | 0.63 µM
3 | COc1ccc([C@@H]2CCc3ccc(O)cc3O2)cc1O[C@@H]1O[C@H](CO)[C@@H](O)[C@H](O)[C@H]1O | 114% | 123% | 16.1 µM
4 | COc1ccc([C@@H]2CCc3ccc(O[C@@H]4O[C@H](CO)[C@@H](O)[C@H](O)[C@H]4O)cc3O2)cc1O | 116% | 104% | 21.5 µM

Reference: ChEMBL document CHEMBL3868605, “Flavans with potential anti-inflammatory activities from Zephyranthes candida” (Bioorg Med Chem Lett, 2016)
